Results on 69 compounds are retold here after patent publication US8637504B2, “Sulfur-containing heterocyclic derivative having beta secretase inhibitory activity” (Shionogi & Co., Ltd., priority 2008, dated 2014).

Each structure is given as a SMILES string.

What is called solubility is the concentration that dissolves in the medium under given conditions. One may read the IC50 as the concentration that gives 50% inhibition.

Sequence of Recombinant human BACE-1 (P56817 46-501): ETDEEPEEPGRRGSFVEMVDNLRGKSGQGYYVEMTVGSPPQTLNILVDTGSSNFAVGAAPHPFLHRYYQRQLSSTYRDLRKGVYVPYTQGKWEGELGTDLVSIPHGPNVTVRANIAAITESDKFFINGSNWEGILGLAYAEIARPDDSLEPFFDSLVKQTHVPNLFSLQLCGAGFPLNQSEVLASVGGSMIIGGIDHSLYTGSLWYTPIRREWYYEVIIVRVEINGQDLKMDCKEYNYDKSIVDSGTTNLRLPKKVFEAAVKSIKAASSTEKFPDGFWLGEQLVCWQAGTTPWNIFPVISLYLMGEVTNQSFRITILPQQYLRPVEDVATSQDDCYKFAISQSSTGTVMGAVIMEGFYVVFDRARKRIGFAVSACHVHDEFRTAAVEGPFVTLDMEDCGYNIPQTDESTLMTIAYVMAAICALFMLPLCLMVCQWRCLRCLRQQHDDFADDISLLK

Tested on in the first data set: not listed separately
The data set can be described thus: Solubility test. The class given is physicochemical. The settings on record: pH 1.2, simulated gastric fluid, kinetic from dmso stock; JP-I medium, turbidity after 4 hours. As to the method:
A 2-fold dilution series (12 points) of a 10 mM solution of a test compound in DMSO was added to a medium (JP-I, JP-II) (2%), and solubility was assessed by 3 stages (High; >40 Medium; 3-40 μM, Low; <3 μM) from a turbidity after 4 hours (crystallization information).
As for `Cn1ccnc1COc1cnc(C(=O)Nc2ccc(F)c([C@]3(C)C=CSC(N)=N3)c2)cn1` [Compound 60], the solubility at 4 h is greater than 40 µM.
Regarding `COc1cnc(C(=O)Nc2cccc(C3(C4CCCCC4)CSC(N)=N3)c2)cn1` (stereo not shown) [Compound 2], the solubility at 4 h is greater than 40 µM.
On the same count and under the same terms, the figure for `NC1=NC(c2ccc(F)cc2)(c2cccc(NC(=O)c3ncc(Cl)cc3Cl)c2)CS1` (stereo not shown) [Compound 9] is greater than 40 µM.

Another data set has as its target Recombinant human BACE-1 (Homo sapiens (Human), UniProt P56817). Kind of data set: Assay of β-secretase-inhibiting activity.
Settings: not given
Consider `C/C(CN1CCOCC1)=C1\C[C@@](C)(c2cc(NC(=O)c3ccc(C#N)cn3)ccc2F)N=C(N)S1` [Compound 96], for which the IC50 is no more than 1000 nM.
The same measure, in the same setting: the figure for `Cc1cnc(C(=O)Nc2ccc(F)c([C@]3(C)C=C(c4ccccc4)SC(N)=N3)c2)cn1` [Compound 19] is no more than 1000 nM.
For `C=C1C[C@@](C)(c2cc(NC(=O)c3ccc(C#N)cn3)ccc2F)N=C(N)S1` [Compound 50], the IC50 is no more than 1000 nM.
With `CC(C)(O)/C=C1/C[C@@](C)(c2cc(NC(=O)c3ccc(C#N)cn3)ccc2F)N=C(N)S1` [Compound 55], the IC50 was no more than 1000 nM.
Still for that read-out and setting: the figure for `COc1cnc(C(=O)Nc2ccc(F)c([C@]3(C)C=C(c4ccccc4)SC(N)=N3)c2)cn1` [Compound 18] is no more than 1000 nM; for `COc1ccc(C2(c3cccc(NC(=O)c4ncc(Cl)cc4Cl)c3)CSC(N)=N2)cc1` (stereo not shown) [Compound 4] it is no more than 1000 nM.
On to `C/C(CN1CCCC1)=C1\C[C@@](C)(c2cc(NC(=O)c3ccc(C#N)cn3)ccc2F)N=C(N)S1` [Compound 98], for which the IC50 was no more than 1000 nM.
Still for that read-out and setting: the result for `Cc1ncn(-c2cnc(C(=O)Nc3ccc(F)c([C@]4(C)C=CSC(N)=N4)c3)cn2)n1` [Compound 74] reads no more than 1000 nM.
Same read-out and setting: the figure for `C#CCOc1cnc(C(=O)Nc2ccc(F)c([C@]3(C)C=C(C)SC(N)=N3)c2)cn1` [Compound 26] is no more than 1000 nM; for `C[C@@]1(c2cc(NC(=O)c3ncc(C#N)cc3F)ccc2F)C=CSC(N)=N1` [Compound 84] it is no more than 1000 nM.
`C#CCOc1cnc(C(=O)Nc2cccc(C3(C(F)(F)F)CCSC(N)=N3)c2)cn1` (stereo not shown) [Compound 49]: the IC50 was no more than 1000 nM.
Still for that read-out and setting: the result for `COc1cnc(C(=O)Nc2cccc([C@]3(C)C=CSC(N)=N3)c2)cn1` [Compound 28] reads no more than 1000 nM; that for `COc1cnc(C(=O)Nc2ccc(F)c([C@]3(C)C=C(C)SC(N)=N3)c2)cn1` [Compound 25], no more than 1000 nM.
Same read-out and setting: the figure for `C[C@@]1(c2cc(NC(=O)c3ncc(C#N)cn3)ccc2F)C=CSC(N)=N1` [Compound 78] is no more than 1000 nM.
Same read-out and setting: the result for `CC1=C[C@@](C)(c2cc(NC(=O)c3ccc(C#N)cn3)ccc2F)N=C(N)S1` [Compound 27] reads no more than 1000 nM; that for `C=C1C[C@@](C)(c2cncc(NC(=O)c3ccc(C#N)cn3)c2)N=C(N)S1` [Compound 105], no more than 1000 nM; that for `COc1ccc(C2(c3cccc(NC(=O)c4cnc(O)cn4)c3)CSC(N)=N2)cc1` (stereo not shown) [Compound 5], no more than 1000 nM.
As for `COCCOc1cnc(C(=O)Nc2cccc(C3(C4CCCCC4)CSC(N)=N3)c2)cn1` (stereo not shown) [Compound 1], the IC50 is no more than 1000 nM.
Still for that read-out and setting: the result for `C[C@@]1(c2cc(NC(=O)c3ncc(F)cc3F)ccc2F)C=CSC(N)=N1` [Compound 77] reads no more than 1000 nM; that for `NC1=NC(c2cccc(NC(=O)c3ncc(Cl)cc3Cl)c2)(C(F)(F)F)CCS1` (stereo not shown) [Compound 45], no more than 1000 nM.
Still for that read-out and setting: the figure for `COc1cnc(C(=O)Nc2ccc(F)c([C@]3(C)C=CSC(N)=N3)c2)c(N)n1` [Compound 37] is no more than 1000 nM; for `C=C1C[C@@](C)(c2cc(NC(=O)c3ccc(C#N)cn3)cnc2Cl)N=C(N)S1` [Compound 95] it is no more than 1000 nM; for `C[C@@]1(c2cc(NC(=O)c3ncc(Cl)cn3)ccc2F)C=CSC(N)=N1` [Compound 80] it is no more than 1000 nM.
On to `C#CCOc1cnc(C(=O)Nc2cccc([C@]3(C)C=CSC(N)=N3)c2)cn1` [Compound 29], for which the IC50 was no more than 1000 nM.
Same read-out and setting: the result for `NC1=NC(c2ccc(OC(F)(F)F)cc2)(c2cccc(NC(=O)c3ncc(Cl)cc3Cl)c2)CS1` (stereo not shown) [Compound 57] reads no more than 1000 nM.
Still for that read-out and setting: the result for `COc1cnc(C(=O)Nc2ccc(F)c([C@]3(C)C=CSC(N)=N3)c2)cn1` [Compound 13] reads no more than 1000 nM.
As for `COCCOc1cnc(C(=O)Nc2ccc(F)c([C@]3(C)C=CSC(N)=N3)c2)cn1` [Compound 34], the IC50 was no more than 1000 nM.
The same measure, in the same setting: the figure for `C#CCOc1cnc(C(=O)Nc2ccc(F)c([C@]3(C)C=CSC(N)=N3)c2)cn1` [Compound 14] is no more than 1000 nM.
The same measure, in the same setting: the figure for `C/C(CO)=C1\C[C@@](C)(c2cc(NC(=O)c3ccc(C#N)cn3)ccc2F)N=C(N)S1` [Compound 85] is no more than 1000 nM; for `C[C@@]1(c2cc(NC(=O)c3ccc(C#N)cn3)ccc2F)C/C(=C/CO)SC(N)=N1` [Compound 54] it is no more than 1000 nM; for `C[C@@]1(c2cccc(NC(=O)c3ccc(C#N)cn3)c2)C=CSC(N)=N1` [Compound 30] it is no more than 1000 nM.
Turning to `C=C1C[C@@](C)(c2cc(NC(=O)c3ccc(C#N)cn3)cnc2C)N=C(N)S1` [Compound 103], the IC50 was no more than 1000 nM.
On the same count and under the same terms, the figure for `Cc1nc(C(=O)Nc2ccc(F)c([C@]3(C)C=CSC(N)=N3)c2)co1` [Compound 15] is no more than 1000 nM; for `Cc1cnc(C(=O)Nc2ccc(F)c([C@]3(C)C=CSC(N)=N3)c2)cn1` [Compound 12] it is no more than 1000 nM; for `C=C1C[C@@](C)(c2cncc(NC(=O)c3ccc(C(F)(F)F)cn3)c2)N=C(N)S1` [Compound 107] it is no more than 1000 nM.
The same measure, in the same setting: the result for `C[C@@]1(c2cc(NC(=O)c3cnc(-c4ccc[nH]4)cn3)ccc2F)C=CSC(N)=N1` [Compound 36] reads no more than 1000 nM; that for `C[C@@]1(c2cc(NC(=O)c3cnc(OCCF)cn3)ccc2F)C=CSC(N)=N1` [Compound 31], no more than 1000 nM.
Still for that read-out and setting: the result for `C/C(=C1\C[C@@](C)(c2cc(NC(=O)c3ccc(C#N)cn3)ccc2F)N=C(N)S1)C(F)F` [Compound 94] reads no more than 1000 nM; that for `C=C1C[C@@](C)(c2cc(NC(=O)c3ncc(Cl)cc3Cl)ccc2F)N=C(N)S1` [Compound 52], no more than 1000 nM; that for `C/C(CN(C)C)=C1\C[C@@](C)(c2cc(NC(=O)c3ccc(C#N)cn3)ccc2F)N=C(N)S1` [Compound 100], no more than 1000 nM.

Still in this data set, the particulars now being: Recombinant human BACE-1 7.4 nM, substrate peptide 18 nM, pH 5.0, 30° C. 3 hours.
In the case of `COc1ccc(C2(c3cccc(NC(=O)c4ncc(Cl)cc4Cl)c3)CSC(N)=N2)cc1O` (stereo not shown) [Compound 58], the IC50 is 186 nM.
On the same count and under the same terms, the result for `C=C1C[C@@](C)(c2cc(NC(=O)c3ncc(C#N)cc3F)cnc2Cl)N=C(N)S1` [Compound 101] reads 22 nM; that for `C[C@@]1(c2cc(NC(=O)c3ccc(-c4ccc[nH]4)cn3)ccc2F)C=CSC(N)=N1` [Compound 39], 97 nM.
Still for that read-out and setting: the result for `C#CCOc1cnc(C(=O)Nc2ccc(F)c([C@@]3(C)N=C(N)SC=C3C)c2)cn1` [Compound 24] reads 54 nM; that for `NC1=NC(c2cccc(NC(=O)c3ccc(O)cn3)c2)(C2CCCCC2)CS1` (stereo not shown) [Compound 3], 966 nM; that for `COc1cnc(C(=O)Nc2cccc(C3(C(F)(F)F)CCSC(N)=N3)c2)cn1` (stereo not shown) [Compound 48], 273 nM.
On the same count and under the same terms, the result for `COCCOc1ccc(C(=O)Nc2ccc(F)c([C@]3(C)C=CSC(N)=N3)c2)nc1` [Compound 33] reads 73 nM; that for `NC1=NC(c2cccc(NC(=O)c3cnc(OCCF)cn3)c2)(C(F)(F)F)CCS1` (stereo not shown) [Compound 46], 611 nM; that for `Cc1cnc(C(=O)Nc2cccc(C3(C(F)(F)F)CCSC(N)=N3)c2)cn1` (stereo not shown) [Compound 44], 2130 nM.
Regarding `C[C@@]1(c2cc(NC(=O)c3ncc(C#N)cc3Cl)ccc2F)C=CSC(N)=N1` [Compound 59], the IC50 was 19 nM.
On the same count and under the same terms, the result for `C[C@@]1(c2cc(NC(=O)c3cnc(-n4nccn4)cn3)ccc2F)C=CSC(N)=N1` [Compound 73] reads 234 nM; that for `C[C@@]1(c2cc(NC(=O)c3cnc(NS(C)(=O)=O)cn3)ccc2F)C=CSC(N)=N1` [Compound 66], 296 nM.
On the same count and under the same terms, the figure for `Cn1ccnc1COc1cnc(C(=O)Nc2ccc(F)c([C@]3(C)C=CSC(N)=N3)c2)cn1` [Compound 60] is 243 nM; for `C[C@@]1(c2cc(NC(=O)c3cnc(-n4ccnn4)cn3)ccc2F)C=CSC(N)=N1` [Compound 72] it is 250 nM.
For `C[C@@]1(c2cc(NC(=O)c3ccc(F)cn3)ccc2F)C=CSC(N)=N1` [Compound 76], the 50% inhibitory concentration (IC50) is 62 nM.
The same measure, in the same setting: the result for `Cc1ncnn1-c1cnc(C(=O)Nc2ccc(F)c([C@]3(C)C=CSC(N)=N3)c2)cn1` [Compound 75] reads 697 nM; that for `C=C1C[C@@](C)(c2cc(NC(=O)c3cnc(OC)cn3)ccc2F)N=C(N)S1` [Compound 51], 16 nM; that for `N#Cc1ccc(C(=O)Nc2cccc(C3(C(F)(F)F)CCSC(N)=N3)c2)nc1` (stereo not shown) [Compound 47], 91 nM.
On to `C[C@@]1(c2cc(NC(=O)c3cnc(OCc4ncc[nH]4)cn3)ccc2F)C=CSC(N)=N1` [Compound 61], for which the IC50 stood at 169 nM.
Same read-out and setting: the result for `COc1cnc(C(=O)Nc2ccc(F)c([C@@]3(C)N=C(N)SC=C3C)c2)cn1` [Compound 22] reads 572 nM.
Take `C[C@@]1(c2cc(NC(=O)c3ccc(Cl)cn3)ccc2F)C=CSC(N)=N1` [Compound 16]: the half-inhibitory concentration (IC50) stood at 10 nM.
In the case of `C=C1C[C@@](C)(c2cc(NC(=O)c3cnc(C)cn3)ccc2F)N=C(N)S1` [Compound 53], the IC50 came out at 76 nM.
Still for that read-out and setting: the result for `CC(C)=C1C[C@@](C)(c2cc(NC(=O)c3cnc(C)cn3)ccc2F)N=C(N)S1` [Compound 20] reads 95 nM; that for `C[C@@]1(c2cc(NC(=O)c3ncc(Br)cn3)ccc2F)C=CSC(N)=N1` [Compound 79], 24 nM.
Still for that read-out and setting: the figure for `Cc1c(C(=O)Nc2ccc(F)c([C@]3(C)C=CSC(N)=N3)c2)oc2ccc(Br)cc12` [Compound 81] is 7 nM.
The same measure, in the same setting: the result for `COc1cnc(C(=O)Nc2ccc(F)c([C@]3(C)CC(=C(C)C)SC(N)=N3)c2)cn1` [Compound 21] reads 19 nM; that for `NC1=NC(c2cccc(F)c2)(c2cccc(NC(=O)c3ncc(Cl)cc3Cl)c2)CS1` (stereo not shown) [Compound 56], 352 nM.
